We go through 15 molecules from patent publication US20190135818A1 (SHANGHAI INSTITUTE OF MATERIA MEDICA, CHINESE ACADEMY OF …, priority 2016, published 2019).

In one assay the target is T1, FGFR1 (Homo sapiens, UniProt P11362).
T1 construct: The reaction was initiated by addition of FGFR kinase domain recombinant protein diluted with 49 μL of reaction buffer; purchased Millipore 14-482
Put plainly: FGFR kinase inhibitory activity experiment (ELISA, Poly(Glu,Tyr)4:1 substrate). The format is biochemical. The note with it: kinase recombinant protein FGFR1, ATP 5 μM. The protocol: Precision electronic balance (Sartotius, Cat. No. BP210D), adjustable wavelength microplate reader (Molecular Device, Cat. No. SpectraMax 190).
After the liquid was removed from the wells, the plate was washed for three times with 200 μL/well of T-PBS (PBS containing 0.1% Tween-20) for 5 minutes each time. The enzyme plate was dried at 37° C. in a dryer for 1-2 hours.
50 μL ATP solution diluted with reaction buffer (50 mM HEPES pH 7.4, 50 mM MgCl2, 0.5 mM MnCl2, 0.2 mM Na3VO4, 1 mM DTT) was added into each well at a 5 μM final concentration. The compounds were diluted to appropriate concentration in DMSO, 1 μL/well or containing the corresponding concentrations of DMSO (negative control wells). The reaction was initiated by addition of FGFR kinase domain recombinant protein diluted with 49 μL of reaction buffer. Two control wells without enzyme were set in each experiment. The plate was placed on a shaker (100 rpm) at 37° C. for 1 hour. The plate was washed with T-PBS for three times. 100 μL/well of primary antibody PY99 dilution was added, and incubated at 37° C. for 0.5 hour on a shaker (100 rpm). The plate was washed with T-PBS for three times. 100 μL/well of horseradish peroxidase-labeled secondary anti-goat anti-mouse IgG dilution was added and incubated at 37° C. for 0.5 hour on a shaker (100 rpm). The plate was washed with T-PBS for three times. 100 μL/well of 2 mg/mL OPD coloration solution (diluted with 0.1 M citric acid-sodium citrate buffer containing 0.03% H2O2 (pH=5.4)) was added, and incubated in darkness for 1-10 minutes at 25° C. The reaction was quenched with 50 μL/well 2M H2SO4, and read at 490 nm using a tunable microplate microplate reader SPECTRA MAX 190.
The inhibition ratio of the sample was determined by the following formula: […]
(§1) The IC50 values were obtained by four-parameter regression analysis using the software supplied with the microplate reader.

The test system of assay [1] is Human acute myeloid leukemia cell line KG1. The experiment in a line: FGFR-dependent tumor cell proliferation inhibition activity test (CCK-8, 72 h). It counts as cell-based.
From the text: Human acute myeloid leukemia cell line KG1 (FGFR1 fusion protein expressed in the cytoplasm, FGFR1-dependent tumor cell line) (ATCC, Cat. No. CCL-246), cell culture medium RPMI-1640 (Corning Cellgro, No. 10-040-CVR), fetal bovine serum (Life
Technologies, Cat. No. 10099-141) was purchased from the company; CCK-8 cell counting kit (DOJINDO, Cat. No. FK808). Adjustable wavelength microplate reader (Molecular Device, Cat. No. SpectraMax 190).
The inhibitory effect of the compound on KG1 proliferation was detected by CCK-8 Cell Counting Kit (Dojindo): Logarithmic growth phase cells were seeded in 96-well culture plate in appropriate density, 90 ul for each well. After cultured overnight, different concentrations of drugs were added and incubated for 72 h, while solvent control well was set (negative control). After the cells were treated by the compound for 72 h, 10 μL of CCK-8 reagent was added to each well. After incubated for 2-4 hours in a 37 □ incubator, the plate was read with SpectraMax 190 microplate reader at wavelength 450 nm.
The inhibition rate of compounds against cell proliferation is calculated by the following formula:
Inhibition rate (%)=(OD negative control well-OD administration well)/OD negative control well×100%.
as §1

For assay [2], the system named is human lung cancer NCI-H1581 transplanted tumor. The experiment in a line: Tumor growth inhibition in tumor-bearing mice (subcutaneously transplanted tumor). It counts as in vivo, BALB/cA nude mice. The protocol: Before using, the compound was diluted with 5% Tween80 in normal saline to the desired concentration (light yellow suspension), and was prepared once a week.
Before using, the compound was diluted with 1% Tween 80 in normal saline to the desired concentration (white suspension), and was prepared once a week.
The cell strain was inoculated in the right axilla of the nude mice, and the amount of cells inoculated was 5×10^6/animal to form transplanted tumor, and passaged in vivo in nude mice by 1 generation before use.
The tumor tissue in the vigorous growth period was cut into 1.5 mm^3, and inoculated subcutaneously in the right axilla of the nude mice under aseptic conditions. The diameter of the subcutaneously transplanted in a nude mice was measured with a vernier caliper, and the animals were randomly grouped when the average volume of tumors was about 220 mm^3. […] The solvent control group was given an equal amount of normal saline. The diameter of the transplanted tumor was measured twice a week during the entire experiment, and the body weights of the mice were weighed. The calculation formula of tumor volume (TV) is: TV=1/2×a×b2, where a and b respectively represent the length and width of the tumor. The relative tumor volume (RTV) was calculated based on the measured results and the formula was: RTV=Vt/V0. Where V0 is the tumor volume measured before grouping and dosing (d0), and Vt is the tumor volume at each measurement.

[3] abbreviates: AZD4547 12.5 mg/kg po qd/13, d13.

T1 sequence (P11362 478-767 limits assumed): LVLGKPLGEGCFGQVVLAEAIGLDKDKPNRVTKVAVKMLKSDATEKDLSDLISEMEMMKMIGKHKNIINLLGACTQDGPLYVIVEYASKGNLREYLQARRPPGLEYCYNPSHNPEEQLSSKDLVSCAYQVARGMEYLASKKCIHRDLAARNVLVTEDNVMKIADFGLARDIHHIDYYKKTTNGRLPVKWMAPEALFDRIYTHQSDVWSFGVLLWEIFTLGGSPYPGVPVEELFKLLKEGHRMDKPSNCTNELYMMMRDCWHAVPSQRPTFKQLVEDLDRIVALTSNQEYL

In the case of `C=CC(=O)N1CCCC(n2nc3c(=O)[nH]nc(N)c3c2-c2oc3ccc(C)cc3c2C)C1` (stereo not drawn) [Compound A40, 2-(1-acryloylpiperidin-3-yl)-4-amino-3-(3,5-dimethyl-1-benzofuran-2-yl)-2,6-dihy-dro-7H-pyrazolo[3,4-d]pyridazin-7-one], the IC50 on FGFR1 is less than 100 nM; in assay [1] (Homo sapiens, KG-1, KG1 cells), not above 100 nM.

For `CCC(=O)N1CCC(n2nc3c(=O)[nH]nc(N)c3c2-c2oc3ccc(Cl)cc3c2C)CC1` [Compound A41], the IC50 on FGFR1 was less than 100 nM; in assay [1] (Homo sapiens, KG-1, KG1 cells) it was 100 to 1000 nM.

Take `C=CC(=O)N1CCC(n2nc3c(=O)[nH]nc(N)c3c2-c2oc3ccc(C)cc3c2C)C1` (stereo not drawn) [Compound A51, 2-(1-acryloylpyrrolidin-3-yl)-4-amino-3-(3,5-dimethyl-1-benzofuran-2-yl)-2,6-dihydro-7H-pyrazolo[3,4-d]pyridazin-7-one]: the IC50 at FGFR1 is less than 100 nM; in assay [1] (Homo sapiens, KG-1, KG1 cells) it was not above 100 nM.

Regarding `C=C(F)C(=O)N1CCC(n2nc3c(=O)[nH]nc(N)c3c2-c2oc3ccc(C)cc3c2C)C1` (stereo not drawn) [Compound A52, 4-amino-3-(3,5-dimethyl-1-benzofuran-2-yl)-2-[1-(2-fluoroacryloyl)pyrrolidin-3-yl]-2,6-dihydro-7H-pyrazolo[3,4-d] pyridazin-7-one], the IC50 at FGFR1 was less than 100 nM; in assay [1] (Homo sapiens, KG-1, KG1 cells), not above 100 nM.

On to `C=C(C#N)C(=O)N1CCC(n2nc3c(=O)[nH]nc(N)c3c2-c2oc3ccc(C)cc3c2C)CC1` [Compound A55, 2-({4-[4-amino-3-(3,5-dimethyl-1-benzo-furan-2-yl)-7-carbonyl-6,7-dihydro-2H-pyrazolo[3,4-d]pyridazin-2-yl]piperidin-1-yl}carbonyl)prop-2-enenitrile], for which the IC50 at FGFR1 was less than 100 nM; in assay [1] (Homo sapiens, KG-1, KG1 cells) it was not above 100 nM.

As to `C=CC(=O)N1CCCC(n2nc3c(=O)[nH]nc(N)c3c2-c2oc3ccc(OC)cc3c2C)C1` (stereo not drawn) [Compound A79, 2-(1-acryloylpiperidin-3-yl)-4-amino-3-(5-methoxy-3-methylbenzofuran-2-yl)-2,6-dihydro-7H-pyrazolo[3,4-d] pyridazin-7-one], the IC50 at FGFR1 was less than 100 nM; in assay [1] (Homo sapiens, KG-1, KG1 cells), not above 100 nM.

For the molecule `C=CC(=O)N1CCC(n2nc3c(=O)[nH]nc(N)c3c2-c2oc3ccc(F)cc3c2C)CC1` [Compound A80, 2-(1-acryloylpiperidin-4-yl)-4-amino-3-(5-fluoro-3-methylbenzofuran-2-yl)-2,6-dihydro-7H-pyrazolo[3,4-d]pyridazin-7-one], the IC50 on FGFR1 was 100 to 1000 nM; in assay [1] (Homo sapiens, KG-1, KG1 cells) it was 100 to 1000 nM.

For the molecule `C=CC(=O)N1CCC(n2nc3c(=O)[nH]nc(N)c3c2-c2oc3cc(C)ccc3c2C)CC1` [Compound A82, 2-(1-acryloylpiperidin-4-yl)-4-amino-3-(3,6-dimethylbenzofuran-2-yl)-2,6-dihy-dro-7H-pyrazole[3,4-d]pyridazin-7-one], the IC50 is less than 100 nM on FGFR1 and not above 100 nM in assay [1] (Homo sapiens, KG-1, KG1 cells).

On to `C=CC(=O)N1CCC(n2nc3c(=O)[nH]nc(N)c3c2-c2oc3cc(F)ccc3c2C)CC1` [Compound A83, 2-(1-acryloylpiperidin-4-yl)-4-amino-3-(6-fluoro-3-methylbenzofuran-2-yl)-2,6-dihydro-7H-pyrazole[3,4-d]pyridazine-7-one], for which the IC50 at FGFR1 is less than 100 nM; in assay [1] (Homo sapiens, KG-1, KG1 cells), not above 100 nM.

Regarding `C=CC(=O)N1CCC(n2nc3c(=O)[nH]nc(N)c3c2-c2oc3cc(Cl)ccc3c2C)CC1` [Compound A84, 2-(1-acryloylpiperidin-4-yl)-4-amino-3-(6-chloro-3-methylbenzofuran-2-yl)-2,6-dihydro-7H-pyrazolo[3,4-d]pyridazine-7-one], the concentration for half-maximal inhibition (IC50) at FGFR1 was less than 100 nM; in assay [1] (Homo sapiens, KG-1, KG1 cells), not above 100 nM.

Regarding `C=CC(=O)N1CCC(n2nc3c(=O)[nH]nc(N)c3c2-c2oc3ccc(C)cc3c2CC)CC1` [Compound A85, 2-(1-acryloylpiperidin-4-yl)-4-amino-3-(3-ethyl-5-methylbenzofuran-2-yl)-2,6-dihydro-7H-pyrazolo[3,4-d]pyridazin-7-one], the IC50 on FGFR1 is less than 100 nM; in assay [1] (Homo sapiens, KG-1, KG1 cells), not above 100 nM.

For `C=CC(=O)N1CCC(n2nc3c(=O)[nH]nc(N)c3c2-c2oc3ccc(Cl)cc3c2C)CC1` [Compound A86, 2-(1-acryloylpiperidin-4-yl)-4-amino-3-(5-chloro-3-methylbenzofuran-2-yl)-2,6-dihydro-7H-pyrazolo[3,4-d]pyridazin-7-one], the IC50 was less than 100 nM at FGFR1 and not above 100 nM in assay [1] (Homo sapiens, KG-1, KG1 cells).

Take `C=CC(=O)N1CCCC(n2nc3c(=O)[nH]nc(N)c3c2-c2oc3ccc(Cl)cc3c2C)C1` (stereo not drawn) [Compound A87, 2-(1-acryloylpiperidin-3-yl)-4-amino-3-(5-chloro-3-methylbenzofuran-2-yl)-2,6-dihydro-7H-pyrazolo[3,4-d]pyridazine-7-one]: the IC50 was less than 100 nM on FGFR1 and not above 100 nM in assay [1] (Homo sapiens, KG-1, KG1 cells).

Turning to `C=CC(=O)NC1CCC(n2nc3c(=O)[nH]nc(N)c3c2-c2oc3ccc(C)cc3c2C)CC1` (stereo not drawn) [Compound A88, N-(4-(4-amino-3-(3,5-dimethylbenzo-furan-2-yl)-7-carbonyl-6,7-dihydro-2H-pyrazolo[3,4-d]pyridazin-2-yl)cyclohexyl)acryloylamide], the IC50 on FGFR1 is less than 100 nM; in assay [1] (KG1 cells), not above 100 nM.

AZD4547 [reference compound]: in assay [2] (12.5 mg/kg orally once a day for 13 days), the “growth of subcutaneously transplanted tumors (in words)” value is given as “partially inhibited”. Moreover, the “T/C (%)” value in assay [2] (AZD4547 12.5 mg/kg po qd/13, 13th day) worked out at 16.39%. The “TV (mm^3, mean ± SD) d0” value in assay [2] (AZD4547 12.5 mg/kg po qd/13, d0, before dosing) is given as 153 ± 50 mm^3. Besides, in assay [2] (setting [3]), the “RTV (mean ± SD)” value was 3.43 ± 2.61 and the “TV (mm^3, mean ± SD) d13” value was found to be 517 ± 392 mm^3.
